In data set [1] the test system is tomato fruit. As to conditions: cited from earlier work.
The test system of data set [2] is AtGA20ox and AtGA3ox genes. As to conditions: non-pollinated fruits; cited from earlier work.
Data set [3] has as its system pea 'Carneval'. Briefly: Growth chamber experiment 1, pea 'Carneval' sprayed with 4-Cl-IAA (Table P2). In kind it is in vivo, Pisum sativum L. As to conditions: for Seed yield per plant: sprayed near or at anthesis. On the procedure:
For growth chamber experiment, seeds of ‘Carneval’ were planted at an approximate depth of 2.5 cm in 3-L plastic pots (4 seeds per pot and thinned to 2 plants per pot after approximately 2 weeks) in 1:1 Sunshine #4 potting mix (Sun Gro Horticulture, Vancouver, Canada) and sand. The experiment was arranged in a completely randomized design and grown at the University of Alberta in a growth chamber set at 19° C./17° C. (day/night) with a 16/8-h photoperiod under cool-white fluorescent lights (54W/835/HO high fluorescent bulbs, Phillips, Holland; 350 μE m^2 s^−2). For the heat stress treatment, plants were placed in a separate growth chamber with a 16/8-h photoperiod under cool-white fluorescent lights (F54/15/835/HO high fluorescent bulbs, Phillips, Holland) for 4 days where the temperature was cycled over a 24 hr period as follows: 33° C. air temperature for 6 hours per day (between 11:00 and 17:00 hrs) for 4 days during the light cycle; the remainder of the light cycle was maintained at a 22° C. air temperature; the dark cycle was maintained at 19° C. After the 4 day heat treatment, the plants were returned to the same growth chamber they were originally grown in, where they were taken to maturity.
For experiment 1, aqueous 4-chloro-indole-3-acetic acid (4-Cl-IAA) solutions at 1×10^−7, 1×10^−6, or 1×10^−5M in 0.1% (v/v) Tween 80 or aqueous 0.1% (v/v) Tween 80 (control) were applied one time as a spray to the entire plant to cover when the first flowering node of the main stem was near or at anthesis.

The subject of data set [4] is canola cv. Peace. Briefly: Greenhouse canola study, foliar auxin spray at green bud stage, with or without heat stress (Tables C1-C4). In kind it is in vivo, Brassica napus. On the procedure: Canola seeds (Brassica napus) from the cultivar Peace were planted at an approximate depth of 1 cm in 5 inch square plastic pots (6 inch pot depth; 4 seeds per pot) in 1:1 Sunshine #4 potting mix (Sun Gro Horticulture, Vancouver, Canada) and sand. The seedlings were thinned to one seedling per pot approximately 2 weeks after seeding. Plants were grown at the University of Alberta in a greenhouse from Nov. 14, 2011 to Mar. 5, 2012. The average temperature was approximately 18° C. day/16° C. night (Nov. 14, 2011 to Feb. 8, 2012) then 21° C. day/19° C. night from Feb. 8 to Mar. 5, 2012. The plants also received supplemental lighting daily (average photon flux density of 250 μE m^−2s^−2) for 16 hours per day (from 6 am to 10 pm).
The auxins, 4-methyl-indole-3-acetic acid (4-ME-IAA) or 4-chloro-indole-3-acetic acid (4-Cl-IAA) at 1×10^−7, 1×10^−6, 1×10^−5, or 1×10^−4M in aqueous 0.1% (v/v) Tween 80 or a control solution (aqueous 0.1% [v/v] Tween 80) were applied one time as a foliar spray to canola plants at the green bud stage (BBCH scale 51; prior to bolting when flower buds are visible from above, but they are tightly clustered and have not extended above smallest leaves surrounding the inflorescence). The experiment was arranged in a completely randomized design in the greenhouse.
The heat stress treatment was imposed by moving plants to receive the heat stress from the greenhouse into a growth chamber for 6 days. The light cycle began at 7:00 hours at a 19° C. air temperature. The heat treatment began at 11:00 hours (33° C. air temperature) and was maintained for 6 hours (until 17:00 hours). Following the heat treatment, the remainder of the light cycle was maintained at a 22° C. air temperature. The dark cycle (began at 23:00 hours) was maintained at 17° C. The photoperiod was 16 h light/8 h dark at an average photon flux density of 492 μE m^−2s^−2 using 54W/835/HO high fluorescent bulbs, Phillips, Holland. This heat treatment cycle was imposed for 6 days. The plants were returned to the greenhouse after the heat stress treatment to develop to maturity.

For data set [5], the system named is pea pericarp. Briefly: Split-pericarp assay: growth of deseeded pea pericarps attached to the plant. In kind it is in vivo, Pisum sativum. The text has this: In addition to GAs, developing pea seeds and pericarps contain two auxins, 4-chloroindole-3-acetic acid (4-Cl-IAA) and indole-3-acetic acid (IAA) (Magnus et al. 1997). A split-pericarp assay where test compounds are applied to the inner wall of split and deseeded pericarps that are still attached to the plant has been developed to examine the effects of exogenously applied growth substances on pericarp growth.
(§1) During early pea fruit growth, the physiological roles of 4-chloroindole-3-acetic acid (4-Cl-IAA) and IAA, both natural pea auxins, in regulating gibberellin (GA) 20-oxidase gene expression (PsGA20ox1) were tested with 4-position, ring-substituted auxins that have a range of biological activities (fruit growth). The effect of seeds, and natural and synthetic auxins (4-Cl-IAA, and IAA; 4-Me-IAA, 4-Et-IAA and 4-F-IAA, respectively), and auxin concentration (4-Cl-IAA) on PsGA20ox1 mRNA levels in pea pericarp were investigated over a 24 h treatment period. The ability of certain 4-substituted auxins to increase PsGA20ox1 mRNA levels in deseeded pericarp was correlated with their ability to stimulate pericarp growth.

Data set [6] has as its system PsGA20ox1, PsGA3ox1, PsGA2ox1. Briefly: GA biosynthesis/catabolism gene expression in pea pericarp. In kind it is in vivo, Pisum sativum. As to conditions: 24 h treatment period. As to the method: as §1
For data set [7], the system named is pea pericarp. As to conditions: cited from earlier work; for substitution for seeds in stimulating pericarp growth: deseeded pericarps, early pericarp growth (2 DAA); for substitution for the seeds in maintaining pea fruit growth in planta: in vivo.
The subject of data set [8] is PsGA20ox1, PsGA3ox1, PsGA2ox1. As to conditions: in vivo; cited from earlier work.
Setting [9] is: 1×10^−4 M, heat stress 33° C. 6 h/day, 6 days (Table C4).
Where [10] appears, read: 1×10^−4 M, non-heat stress (Table C3).
Setting [11] is: 1×10^−5 M, heat stress 33° C. 6 h/day, 6 days (Table C4).
Where [12] appears, read: 1×10^−5 M, non-heat stress (Table C3).
The mark [13] stands for this setting: 1×10^−6 M, heat stress 33° C. 6 h/day, 6 days (Table C4).
The mark [14] stands for this setting: 1×10^−6 M, non-heat stress (Table C3).
Where [15] appears, read: 1×10^−7 M, heat stress 33° C. 6 h/day, 6 days (Table C4).
Setting [16] is: 1×10^−7 M, non-heat stress (Table C3).

The structures appear in SMILES notation.

For the compound `O=C(O)COc1ccc(Cl)cc1Cl` [2,4-D], the parthenocarpic fruit growth result in data set [1] is reported as “induced parthenocarpic tomato fruit growth”. Also, in data set [2], the “expression of specific AtGA20ox and AtGA3ox genes” value is listed as “up-regulated”.

As for `O=C(O)Cc1c[nH]c2cccc(Cl)c12` [4-Cl-IAA, 4-chloroindole-3-acetic acid], in data set [3] (1×10^−5 M), the “increase in seed yield vs control” value turned out to be 62% and the “Seed yield per plant” value turned out to be 18.28 ± 1.55 g. Also, in data set [3] (1×10^−6 M), the “increase in seed yield vs control” value is given as 65% and the “Seed yield per plant” value was determined as 18.61 ± 1.65 g. Moreover, in data set [3] (1×10^−7 M), the “Seed yield per plant” value is 13.60 ± 1.33 g. For the same compound, the leaf epinasty entry in data set [4] (1×10^−4 M, 24 hours after treatment, milder under heat stress) is listed as “leaf epinasty was observed”. Besides, in data set [4] (setting [9]), the “% pod set” value is recorded as 49 ± 4%, the Seed yield amounted to 4.9 ± 0.8 g, the “Total number of flowers” value came to 312 ± 32 and the “Total number of pods with developing seeds” value turned out to be 151 ± 17. Besides, in data set [4] (setting [9]), the “Total number of racemes” value is 12 ± 1 and the “Total number undeveloped pods” value came out at 45 ± 15. Further, in data set [4] (setting [10]), the “% pod set” value came to 54 ± 4%, the Seed yield is listed as 4.0 ± 0.3 g, the “Total number of flowers” value is reported as 201 ± 24 and the “Total number of pods with developing seeds” value is listed as 106 ± 8. In data set [4] (setting [10]), the “Total number of racemes” value is 8 ± 1 and the “Total number undeveloped pods” value came to 17 ± 4. In addition, in data set [4] (1×10^−4 M, non-stress), the “reduction in number of racemes per plant vs control” value amounted to 33%, the “reduction in seed yield vs control” value amounted to 26% and the “reduction in total number of developing pods per plant vs control” value is listed as 31%. Besides, in data set [4] (setting [11]), the “% pod set” value is 48 ± 2%, the Seed yield worked out at 5.5 ± 1.0 g, the “Total number of flowers” value is given as 414 ± 65 and the “Total number of pods with developing seeds” value was 198 ± 33. Further, in data set [4] (setting [11]), the “Total number of racemes” value was determined as 14 ± 2 and the “Total number undeveloped pods” value amounted to 34 ± 6. Moreover, the “increase in total number of pods with developing seeds per plant vs control” value in data set [4] (1×10^−5 M, non-heat stress) amounted to 27%. In data set [4] (setting [12]), the “% pod set” value was 57 ± 6%, the Seed yield is 5.8 ± 1.0 g, the “Total number of flowers” value was 362 ± 53 and the “Total number of pods with developing seeds” value came out at 195 ± 21. Further, in data set [4] (setting [12]), the “Total number of racemes” value came out at 14 ± 2 and the “Total number undeveloped pods” value turned out to be 47 ± 19. Moreover, in data set [4] (setting [13]), the “% pod set” value is on record as 53 ± 3%, the Seed yield was determined as 6.8 ± 0.5 g, the “Total number of flowers” value was 430 ± 39 and the “Total number of pods with developing seeds” value stood at 229 ± 30. Also, in data set [4] (setting [13]), the “Total number of racemes” value is 15 ± 1 and the “Total number undeveloped pods” value is listed as 42 ± 5. For the same compound, the “seed yield vs control” value in data set [4] (1×10^−6 M, mild heat stress) was “significant increase”. In addition, in data set [4] (setting [14]), the “% pod set” value was determined as 59 ± 4%, the “Total number of flowers” value is reported as 290 ± 26, the “Total number of pods with developing seeds” value is on record as 174 ± 25 and the “Total number of racemes” value worked out at 12 ± 1. The “Total number undeveloped pods” value in data set [4] (setting [14]) is recorded as 29 ± 4. Also, in data set [4] (setting [15]), the “% pod set” value is reported as 46 ± 3%, the Seed yield is 6.0 ± 0.9 g, the “Total number of flowers” value turned out to be 443 ± 70 and the “Total number of pods with developing seeds” value worked out at 197 ± 15. Besides, in data set [4] (setting [15]), the “Total number of racemes” value turned out to be 13 ± 2 and the “Total number undeveloped pods” value is 43 ± 14. In addition, in data set [4] (1×10^−7 M, non-heat stress), the “increase in percent pod set vs control” value is 21% and the “increase in total number of pods with developing seeds per plant vs control” value is on record as 18%. Besides, in data set [4] (setting [16]), the “% pod set” value is on record as 64 ± 4%, the Seed yield is listed as 6.2 ± 0.6 g, the “Total number of flowers” value is listed as 287 ± 29 and the “Total number of pods with developing seeds” value worked out at 181 ± 14. Besides, in data set [4] (setting [16]), the “Total number of racemes” value is recorded as 10 ± 1 and the “Total number undeveloped pods” value was 26 ± 9. Besides, the “pericarp growth (biological activity)” value in data set [5] is on record as “greatest increase”. Further, the “PsGA20ox1 mRNA levels in deseeded pericarp” value (“PsGA20ox1 mRNA levels” for short) in data set [6] was “greatest increase”. In data set [7], the “substitution for seeds in stimulating pericarp growth” value was “can substitute for seeds in stimulating pericarp growth” and the “substitution for the seeds in maintaining pea fruit growth in planta” value is reported as “can substitute for the seeds”. Besides, in data set [8], the “gene expression of the GA catabolic gene PsGA2ox1” value is recorded as “repress”; the “pericarp GA biosynthesis gene expression, PsGA20ox1 and PsGA3ox1” value is “stimulate”.

Take `CCc1cccc2[nH]cc(CC(=O)O)c12` [4-Et-IAA]: the “pericarp growth (biological activity)” value in data set [5] is listed as “minimal or no increase”. For the same compound, the “PsGA20ox1 mRNA levels” value in data set [6] was “minimal or no increase”.

Consider `O=C(O)Cc1c[nH]c2cccc(F)c12` [4-F-IAA], for which the “pericarp growth (biological activity)” value in data set [5] is “minimal or no increase”. In data set [6], the “PsGA20ox1 mRNA levels” value was “minimal or no increase”.

Regarding `O=C(O)Cc1c[nH]c2ccccc12` [IAA, indole-3-acetic acid, reference compound], in data set [5], the “pericarp growth (biological activity)” value is “not effective”. In data set [6], the “PsGA20ox1 mRNA levels” value is “not effective”. Further, in data set [7], the “substitution for seeds in stimulating pericarp growth” value was “cannot” and the “substitution for the seeds in maintaining pea fruit growth in planta” value is listed as “not”.

(Values after patent US20140106967A1, “AUXIN PLANT GROWTH REGULATORS” (The Governors of The University of Alberta, priority 2011, published 2014).)
